Test results as given in patent US7176224B2, “Oxazolyl-aryloxyacetic acid derivatives and their use as PPAR agonists” (Eli Lilly and Company, priority 2000, dated 2007).

Experiments:
huPPARα [1] = biological target: T1, huPPARα (Homo sapiens, UniProt Q07869); assay: DNA-dependent binding (ABCD binding), SPA, radioligand displacement; conditions: tritium-labeled PPARα agonist radioligand
T1 sequence (Q07869 1-468): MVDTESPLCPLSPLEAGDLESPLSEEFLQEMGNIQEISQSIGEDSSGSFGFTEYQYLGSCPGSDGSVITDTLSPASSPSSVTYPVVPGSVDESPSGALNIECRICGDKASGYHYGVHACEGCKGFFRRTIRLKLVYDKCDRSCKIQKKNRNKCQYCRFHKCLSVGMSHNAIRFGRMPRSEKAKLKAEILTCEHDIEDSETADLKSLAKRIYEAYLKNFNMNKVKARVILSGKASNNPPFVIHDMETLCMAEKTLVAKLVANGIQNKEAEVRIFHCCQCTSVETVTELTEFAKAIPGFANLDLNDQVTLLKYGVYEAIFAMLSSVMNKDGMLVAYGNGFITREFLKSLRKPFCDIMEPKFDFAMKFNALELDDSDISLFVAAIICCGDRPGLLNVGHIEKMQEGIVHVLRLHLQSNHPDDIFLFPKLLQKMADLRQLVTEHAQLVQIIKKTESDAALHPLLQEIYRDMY
T1 sequence (P19793 1-462 partner): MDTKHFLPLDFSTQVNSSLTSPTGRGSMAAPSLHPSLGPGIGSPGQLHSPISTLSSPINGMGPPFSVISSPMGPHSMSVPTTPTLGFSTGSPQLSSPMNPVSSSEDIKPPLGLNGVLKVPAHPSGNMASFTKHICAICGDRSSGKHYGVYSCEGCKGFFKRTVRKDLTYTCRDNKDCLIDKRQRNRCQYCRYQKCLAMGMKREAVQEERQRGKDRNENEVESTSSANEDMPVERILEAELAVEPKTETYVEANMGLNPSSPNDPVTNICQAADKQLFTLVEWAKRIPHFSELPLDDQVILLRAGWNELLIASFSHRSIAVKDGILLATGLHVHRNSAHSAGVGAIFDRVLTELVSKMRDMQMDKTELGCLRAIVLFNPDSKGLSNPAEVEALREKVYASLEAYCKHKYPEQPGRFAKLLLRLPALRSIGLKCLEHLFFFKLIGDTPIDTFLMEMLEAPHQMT
Description: (§1) […] binding (ABCD binding) was carried out using SPA technology with PPAR receptors. Tritium-labeled PPARα and PPARγ agonists were used as radioligands for generating displacement curves and IC50 values with compounds of the invention. Cotransfection assays were carried out in CV-1 cells. The reporter plasmid contained an acylCoA oxidase (AOX) PPRE and TK promoter upstream of the luciferase reporter cDNA. Appropriate PPARs and RXRα were constitutively expressed using plasmids containing the CMV promoter. […] In order to eliminate such interference, a GAL4 chimeric system was used in which the DNA binding domain of the transfected PPAR was replaced by that of GAL4, and the GAL4 response element was utilized in place of the AOX PPRE. Cotransfection efficacy was determined relative to PPARα agonist and […] reference molecules. Efficacies were determined by computer fit to a concentration-response curve, or in some cases at a single high concentration of agonist (10 μM). For binding or cotransfection studies with receptors other than PPARs, similar assays were carried out using appropriate ligands, receptors, reporter constructs, etc., for that particular receptor.
(§2) These studies were carried out to evaluate the ability of compounds of the invention to bind to and/or activate various nuclear transcription factors, particularly huPPARα (“hu” indicates “human”) and huPPARγ. These studies provide in vitro data concerning efficacy and selectivity of compounds of the invention. Furthermore, binding and cotransfection data for compounds of the invention were compared with corresponding data for marketed compounds that act on either huPPARα or huPPARγ.

huPPARγ = biological target: T2, huPPARγ (Homo sapiens, UniProt P37231); assay: as above; conditions: tritium-labeled PPARγ agonist radioligand
T2 sequence (P37231 1-505): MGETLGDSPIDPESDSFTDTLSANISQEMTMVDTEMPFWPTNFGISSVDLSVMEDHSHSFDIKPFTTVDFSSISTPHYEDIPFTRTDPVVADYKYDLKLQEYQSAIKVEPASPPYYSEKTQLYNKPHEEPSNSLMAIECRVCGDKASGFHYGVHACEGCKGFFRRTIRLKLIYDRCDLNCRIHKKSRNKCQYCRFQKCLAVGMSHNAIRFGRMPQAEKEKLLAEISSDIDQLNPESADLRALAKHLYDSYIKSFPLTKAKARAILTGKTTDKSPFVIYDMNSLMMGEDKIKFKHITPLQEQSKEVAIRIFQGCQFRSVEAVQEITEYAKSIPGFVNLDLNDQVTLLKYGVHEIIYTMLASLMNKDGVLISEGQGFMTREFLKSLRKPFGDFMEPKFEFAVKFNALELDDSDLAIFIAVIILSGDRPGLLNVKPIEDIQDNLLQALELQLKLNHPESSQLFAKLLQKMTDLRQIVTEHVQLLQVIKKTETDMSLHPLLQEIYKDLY
T2 sequence (P19793 1-462 partner): T1 sequence (P19793 1-462 partner)
Description: as §1, §2

huPPARα [2] = assay: Cotransfection assay in CV-1 cells, luciferase reporter; type: cell-based, human; conditions: GAL4 chimeric system, relative to PPARα agonist reference molecule
Description: […] binding (ABCD binding) was carried out using SPA technology with PPAR receptors. Tritium-labeled PPARα and PPARγ agonists were used as radioligands for generating displacement curves and IC50 values with compounds of the invention. Cotransfection assays were carried out in CV-1 cells. The reporter plasmid contained an acylCoA oxidase (AOX) PPRE and TK promoter upstream of the luciferase reporter cDNA. Appropriate PPARs and RXRα were constitutively expressed using plasmids containing the CMV promoter. For PPARα and […], interference by endogenous […] in CV-1 cells was an issue. In order to eliminate such interference, a GAL4 chimeric system was used in which the DNA binding domain of the transfected PPAR was replaced by that of GAL4, and the GAL4 response element was utilized in place of the AOX PPRE. Cotransfection efficacy was determined relative to PPARα agonist and […] reference molecules. Efficacies were determined by computer fit to a concentration-response curve, or in some cases at a single high concentration of agonist (10 μM). For binding or cotransfection studies with receptors other than PPARs, similar assays were carried out using appropriate ligands, receptors, reporter constructs, etc., for that particular receptor.
as §2

IC50 (huPPARα [1]): 147 nM
IC50 (huPPARγ): 41 nM
SMILES: Cc1oc(-c2cccc(-c3ccc(F)cc3)c2)nc1CCOc1ccc(CC(C)(Oc2ccccc2)C(=O)O)cc1 (stereo not drawn) [Example 4, 3-(4-{2-[2-(4′-Fluorobiphenyl-3-yl)-5-methyloxazol-4-yl]ethoxy}phenyl)-2-methyl-2-phenoxypropionic acid]
huPPARα CTF Efficacy (huPPARα [2]): 38%
